In one assay the target is T1, Human plasma kallikrein (Homo sapiens, UniProt P03952).
T1 construct: yields a heavy chain (371 amino acids) and a light chain (248 amino acids); purchased Enzyme Research Laboratories
Put plainly: Plasma Kallikrein Assay. In kind it is biochemical. To be noted: purified Human plasma kallikrein 0.5 nM, substrate Acetyl-K-P-R-AFC, pH 7.4.

The target of a further assay is human factor XIa (Homo sapiens, UniProt P03951). Put plainly: Factor XIa Assay. As to conditions: human factor XIa 0.04 nM, substrate GPR-AFC, 30 min pre-incubation at 25° C., pH 7.4; read-out: FXIa IC50. In kind it is biochemical.

These results are taken from patent US20230416227A1, “PLASMA KALLIKREIN INHIBITORS” (Merck Sharp & Dohme LLC, priority 2020, published 2023).

The IC50 is the concentration that gives 50% inhibition.

The structures appear in SMILES notation.

Sequence of human factor XIa (P03951 388-625 limits assumed): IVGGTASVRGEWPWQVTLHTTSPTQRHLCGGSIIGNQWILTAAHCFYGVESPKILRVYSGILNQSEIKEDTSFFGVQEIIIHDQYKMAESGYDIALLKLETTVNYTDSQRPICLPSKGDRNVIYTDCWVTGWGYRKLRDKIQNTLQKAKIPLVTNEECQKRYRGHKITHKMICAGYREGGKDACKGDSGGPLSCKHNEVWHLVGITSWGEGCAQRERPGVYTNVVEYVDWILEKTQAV
Sequence of human factor XIa (P03951 19-387 partner limits assumed): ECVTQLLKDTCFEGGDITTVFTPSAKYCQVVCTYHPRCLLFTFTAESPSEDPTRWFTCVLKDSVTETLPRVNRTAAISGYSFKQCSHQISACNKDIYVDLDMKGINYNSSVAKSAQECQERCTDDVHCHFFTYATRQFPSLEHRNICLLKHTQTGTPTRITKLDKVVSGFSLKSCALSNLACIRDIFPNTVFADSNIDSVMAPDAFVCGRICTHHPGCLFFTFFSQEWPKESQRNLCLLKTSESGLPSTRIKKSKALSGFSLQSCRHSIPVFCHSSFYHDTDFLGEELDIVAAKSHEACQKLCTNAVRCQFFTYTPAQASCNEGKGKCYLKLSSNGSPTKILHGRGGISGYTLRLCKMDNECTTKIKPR
T1 sequence (P03952 391-638 limits assumed): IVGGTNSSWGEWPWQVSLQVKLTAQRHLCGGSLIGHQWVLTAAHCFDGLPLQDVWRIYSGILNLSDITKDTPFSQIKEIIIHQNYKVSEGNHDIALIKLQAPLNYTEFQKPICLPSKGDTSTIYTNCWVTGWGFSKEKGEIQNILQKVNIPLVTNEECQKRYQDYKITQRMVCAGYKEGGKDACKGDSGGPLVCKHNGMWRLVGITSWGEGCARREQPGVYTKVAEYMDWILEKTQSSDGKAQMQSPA
T1 sequence (P03952 20-390 partner limits assumed): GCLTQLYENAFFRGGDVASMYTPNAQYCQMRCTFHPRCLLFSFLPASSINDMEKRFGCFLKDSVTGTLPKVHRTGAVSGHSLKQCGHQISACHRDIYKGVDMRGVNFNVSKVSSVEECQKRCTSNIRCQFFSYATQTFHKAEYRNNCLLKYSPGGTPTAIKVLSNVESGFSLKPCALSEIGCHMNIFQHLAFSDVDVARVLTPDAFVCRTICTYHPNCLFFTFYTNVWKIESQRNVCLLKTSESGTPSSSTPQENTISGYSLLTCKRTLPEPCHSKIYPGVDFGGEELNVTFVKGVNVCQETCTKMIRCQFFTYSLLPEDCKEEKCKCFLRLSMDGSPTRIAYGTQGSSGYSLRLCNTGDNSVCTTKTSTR

Consider `O=C(Nc1cnn(Cc2cnc(N3CCC3)nc2C(F)F)c1)c1cncc(-c2c(C(F)F)ccc(Cl)c2F)n1` [Example 19, N-(1-((2-(Azetidin-1-yl)-4-(difluoromethyl)pyrimidin-5-yl)methyl)-1H-pyrazol-4-yl)-6-(3-chloro-6-(difluoromethyl)-2-fluorophenyl)pyrazine-2-carboxamide], for which the values for the IC50 against Human plasma kallikrein and at human factor XIa were 14.6 nM and 4630 nM, respectively.
In the case of `O=C(Nc1cnn(C2(c3cnc(N4CCC4)nc3)CC2)c1)c1cncc(-c2c(C(F)F)ccc(Cl)c2F)n1` [Example 21, N-(1-(1-(2-(Azetidin-1-yl)pyrimidin-5-yl)cyclopropyl)-1H-pyrazol-4-yl)-6-(3-chloro-6-(difluoromethyl)-2-fluorophenyl)pyrazine-2-carboxamide], the half-maximal inhibitory concentration (IC50) turned out to be 17 nM at Human plasma kallikrein and 973 nM on human factor XIa.
With `O=C(Nc1cnn(Cc2cnc(N3CCC3)nc2C2CC2)c1)c1cncc(-c2c(C(F)F)ccc(Cl)c2F)n1` [Example 22, N-(1-((2-(Azetidin-1-yl)-4-cyclopropylpyrimidin-5-yl)methyl)-1H-pyrazol-4-yl)-6-(3-chloro-6-(difluoromethyl)-2-fluorophenyl)pyrazine-2-carboxamide], the results for the IC50 against Human plasma kallikrein and at human factor XIa were 22.3 nM and 4370 nM, respectively.
For `COc1nc(N2CCC2)ncc1Cn1cc(NC(=O)c2cncc(-c3c(C(F)F)ccc(Cl)c3F)n2)cn1` [Example 23, N-(1-((2-(Azetidin-1-yl)-4-methoxypyrimidin-5-yl)methyl)-1H-pyrazol-4-yl)-6-(3-chloro-6-(difluoromethyl)-2-fluorophenyl)pyrazine-2-carboxamide], in that order: 26 nM and 1760 nM.
`O=C(Nc1cnn(Cc2cnc(N3CCC3)nc2)n1)c1cncc(-c2c(C(F)F)ccc(Cl)c2F)n1` [Example 25, N-(2-((2-(Azetidin-1-yl)pyrimidin-5-yl)methyl)-2H-1,2,3-triazol-4-yl)-6-(3-chloro-6-(difluoromethyl)-2-fluorophenyl)pyrazine-2-carboxamide]: the results for the IC50 at Human plasma kallikrein and at human factor XIa were 41.3 nM and 6090 nM, respectively.
As to `O=C(Nc1cnn(S(=O)(=O)c2ccc(N3CCC3)nc2)c1)c1cncc(-c2c(C(F)F)ccc(Cl)c2F)n1` [Example 26, N-(1-((6-(Azetidin-1-yl)pyridin-3-yl)sulfonyl)-1H-pyrazol-4-yl)-6-(3-chloro-6-(difluoromethyl)-2-fluorophenyl)pyrazine-2-carboxamide], the IC50 against Human plasma kallikrein came out at 45.9 nM; on human factor XIa, 5350 nM.
Turning to `CC(c1cnc(N2CCC2)nc1)n1cc(NC(=O)c2cncc(-c3c(Br)ccc(Cl)c3F)n2)cn1` (stereo not shown) [Example 62, N-(1-(1-(2-(Azetidin-1-yl)pyrimidin-5-yl)ethyl)-1H-pyrazol-4-yl)-6-(6-bromo-3-chloro-2-fluorophenyl)pyrazine-2-carboxamide], the results for the IC50 at Human plasma kallikrein and at human factor XIa were 17.8 nM and 2150 nM, respectively.
On to `O=C(Nc1cnn(Cc2ccc(N3CCC3)nc2)c1)c1cncc(-c2c(OC(F)F)ccc(Cl)c2F)n1` [Example 63, N-(1-((6-(Azetidin-1-yl)pyridin-3-yl)methyl)-1H-pyrazol-4-yl)-6-(3-chloro-6-(difluoromethoxy)-2-fluorophenyl)pyrazine-2-carboxamide], for which the figures for the IC50 against Human plasma kallikrein and on human factor XIa were 17.3 nM and 5040 nM, respectively.
Regarding `O=C(Nc1cnn(Cc2cnc(N3CCC3)nc2)c1)c1cncc(-c2c(OC(F)F)ccc(Cl)c2F)n1` [Example 64, N-(1-((2-(Azetidin-1-yl)pyrimidin-5-yl)methyl)-1H-pyrazol-4-yl)-6-(3-chloro-6-(difluoromethoxy)-2-fluorophenyl)pyrazine-2-carboxamide], the IC50 against Human plasma kallikrein came out at 9.6 nM; on human factor XIa, 292 nM.
As to `O=C(Nc1cnn(Cc2cnc(N3C[C@H]4C[C@H]4[C@H]3CO)nc2)c1)c1cncc(-c2c(C(F)F)ccc(Cl)c2F)n1` [Example 73, 6-(3-Chloro-6-(difluoromethyl)-2-fluorophenyl)-N-(1-((2-((1R,2S,5S)-2-(hydroxymethyl)-3-azabicyclo[3.1.0]hexan-3-yl)pyrimidin-5-yl)methyl)-1H-pyrazol-4-yl)pyrazine-2-carboxamide], the results for the IC50 against Human plasma kallikrein and at human factor XIa were 3.7 nM and 1490 nM, respectively.
The corresponding values for `O=C(Nc1cnn(Cc2cnc(N3CC4CC4C3)nc2)c1)c1cncc(-c2c(C(F)F)ccc(Cl)c2F)n1` (stereo not shown) [Example 80, N-(1-((2-(3-Azabicyclo[3.1.0]hexan-3-yl)pyrimidin-5-yl)methyl)-1H-pyrazol-4-yl)-6-(3-chloro-6-(difluoromethyl)-2-fluorophenyl)pyrazine-2-carboxamide] are 6.7 nM and 1990 nM.
As for `NCC1CCCN1c1ncc(Cn2cc(NC(=O)c3cncc(-c4c(C(F)F)ccc(Cl)c4F)n3)cn2)cn1` (stereo not shown) [Example 81, N-(1-((2-(2-(Aminomethyl)pyrrolidin-1-yl)pyrimidin-5-yl)methyl)-1H-pyrazol-4-yl)-6-(3-chloro-6-(difluoromethyl)-2-fluorophenyl)pyrazine-2-carboxamide], the IC50 on Human plasma kallikrein was determined as 7.4 nM; at human factor XIa it was 3940 nM.
The corresponding values for `CC(c1cnc(N2CC(F)(F)C2)nc1)n1cc(NC(=O)c2cncc(-c3c(C(F)F)ccc(Cl)c3F)n2)cn1` (stereo not shown) [Example 82, 6-(3-Chloro-6-(difluoromethyl)-2-fluorophenyl)-N-(1-(1-(2-(3,3-difluoroazetidin-1-yl)pyrimidin-5-yl)ethyl)-1H-pyrazol-4-yl)pyrazine-2-carboxamide] are 9.3 nM and 6010 nM.
For `CC(c1cnc(N2Cc3cccnc3C2)nc1)n1cc(NC(=O)c2cncc(-c3c(C(F)F)ccc(Cl)c3F)n2)cn1` (stereo not shown) [Example 83, 6-(3-Chloro-6-(difluoromethyl)-2-fluorophenyl)-N-(1-(1-(2-(5,7-dihydro-6H-pyrrolo[3,4-b]pyridin-6-yl)pyrimidin-5-yl)ethyl)-1H-pyrazol-4-yl)pyrazine-2-carboxamide], in that order: 9.4 nM and 8080 nM.
As for `C[C@H](O)[C@H]1[C@H]2C[C@H]2CN1c1ncc(Cn2cc(NC(=O)c3cncc(-c4c(C(F)F)ccc(Cl)c4F)n3)cn2)cn1` [Example 84, 6-(3-Chloro-6-(difluoromethyl)-2-fluorophenyl)-N-(1-((2-((1S,2R,5R)-2-((S)-1-hydroxyethyl)-3-azabicyclo[3.1.0]hexan-3-yl)pyrimidin-5-yl)methyl)-1H-pyrazol-4-yl)pyrazine-2-carboxamide], the IC50 was found to be 11.3 nM against Human plasma kallikrein and 7240 nM on human factor XIa.
Consider `C[C@@H](O)[C@H]1[C@H]2C[C@H]2CN1c1ncc(Cn2cc(NC(=O)c3cncc(-c4c(C(F)F)ccc(Cl)c4F)n3)cn2)cn1` [Example 87, 6-(3-Chloro-6-(difluoromethyl)-2-fluorophenyl)-N-(1-((2-((1S,2R,5R)-2-((R)-1-hydroxyethyl)-3-azabicyclo[3.1.0]hexan-3-yl)pyrimidin-5-yl)methyl)-1H-pyrazol-4-yl)pyrazine-2-carboxamide], for which the IC50 at Human plasma kallikrein is 13.6 nM; at human factor XIa it was 8430 nM.
As for `C[C@@H](c1cnc(N2CC(F)C2)nc1)n1cc(NC(=O)c2cncc(-c3c(C(F)F)ccc(Cl)c3F)n2)cn1` [Example 92, (S)-6-(3-Chloro-6-(difluoromethyl)-2-fluorophenyl)-N-(1-(1-(2-(3-fluoroazetidin-1-yl)pyrimidin-5-yl)ethyl)-1H-pyrazol-4-yl)pyrazine-2-carboxamide], the IC50 at Human plasma kallikrein worked out at 18.5 nM; at human factor XIa, 5020 nM.
With `CC(c1cnc(N2Cc3cnn(C)c3C2)nc1)n1cc(NC(=O)c2cncc(-c3c(C(F)F)ccc(Cl)c3F)n2)cn1` (stereo not shown) [Example 94, 6-(3-Chloro-6-(difluoromethyl)-2-fluorophenyl)-N-(1-(1-(2-(1-methyl-4,6-dihydropyrrolo[3,4-c]pyrazol-5(1H)-yl)pyrimidin-5-yl)ethyl)-1H-pyrazol-4-yl)pyrazine-2-carboxamide], the IC50 worked out at 20 nM on Human plasma kallikrein and 8230 nM on human factor XIa.
For `NC(=O)[C@H]1CCCN1c1ncc(Cn2cc(NC(=O)c3cncc(-c4c(C(F)F)ccc(Cl)c4F)n3)cn2)cn1` [Example 97, (R)-N-(1-((2-(2-Carbamoylpyrrolidin-1-yl)pyrimidin-5-yl)methyl)-1H-pyrazol-4-yl)-6-(3-chloro-6-(difluoromethyl)-2-fluorophenyl)pyrazine-2-carboxamide], in that order: 26.9 nM and 8930 nM.
For `CC(c1cnc(N2CC3(CC3)C2)nc1)n1cc(NC(=O)c2cncc(-c3c(C(F)F)ccc(Cl)c3F)n2)cn1` (stereo not shown) [Example 99, N-(1-(1-(2-(5-Azaspiro[2.3]hexan-5-yl)pyrimidin-5-yl)ethyl)-1H-pyrazol-4-yl)-6-(3-chloro-6-(difluoromethyl)-2-fluorophenyl)pyrazine-2-carboxamide], in that order: 29.8 nM and 3660 nM.
On to `C[C@@H](c1cnc(N2CC(C)(F)C2)nc1)n1cc(NC(=O)c2cncc(-c3c(C(F)F)ccc(Cl)c3F)n2)cn1` [Example 101, (S)-6-(3-Chloro-6-(difluoromethyl)-2-fluorophenyl)-N-(1-(1-(2-(3-fluoro-3-methylazetidin-1-yl)pyrimidin-5-yl)ethyl)-1H-pyrazol-4-yl)pyrazine-2-carboxamide], for which the IC50 was 31.2 nM against Human plasma kallikrein and 7640 nM on human factor XIa.
The corresponding values for `O=C(Nc1cnn(Cc2cnc(N3CC[C@@H]3CO)nc2)c1)c1cncc(-c2c(C(F)F)ccc(Cl)c2F)n1` [Example 111, (R)-6-(3-Chloro-6-(difluoromethyl)-2-fluorophenyl)-N-(1-((2-(2-(hydroxymethyl)azetidin-1-yl)pyrimidin-5-yl)methyl)-1H-pyrazol-4-yl)pyrazine-2-carboxamide] are 46.5 nM and 3000 nM.
Turning to `O=C(Nc1cnn(Cc2ccc(N3CCC(O)C3)nc2)c1)c1cncc(-c2c(C(F)F)ccc(Cl)c2F)n1` (stereo not shown) [Example 123, 6-(3-Chloro-6-(difluoromethyl)-2-fluorophenyl)-N-(1-((6-(3-hydroxypyrrolidin-1-yl)pyridin-3-yl)methyl)-1H-pyrazol-4-yl)pyrazine-2-carboxamide], the IC50 came out at 27.3 nM at Human plasma kallikrein and 3330 nM on human factor XIa.
